Among the data in patent publication US20090197926A1, “BENZIMIDAZOLES AND THEIR USE FOR THE TREATMENT OF DIABETES” (priority 2006, published 2009) are IC50 values, retold here.

pIC50: −log10 of the molar value.

The assay has as its target T1, human DGAT1 (Homo sapiens, UniProt O75907).
T1 construct: made in house; host or cells: Sf9 insect cells (recombinant baculovirus); membrane fraction
T1 sequence (O75907 1-488): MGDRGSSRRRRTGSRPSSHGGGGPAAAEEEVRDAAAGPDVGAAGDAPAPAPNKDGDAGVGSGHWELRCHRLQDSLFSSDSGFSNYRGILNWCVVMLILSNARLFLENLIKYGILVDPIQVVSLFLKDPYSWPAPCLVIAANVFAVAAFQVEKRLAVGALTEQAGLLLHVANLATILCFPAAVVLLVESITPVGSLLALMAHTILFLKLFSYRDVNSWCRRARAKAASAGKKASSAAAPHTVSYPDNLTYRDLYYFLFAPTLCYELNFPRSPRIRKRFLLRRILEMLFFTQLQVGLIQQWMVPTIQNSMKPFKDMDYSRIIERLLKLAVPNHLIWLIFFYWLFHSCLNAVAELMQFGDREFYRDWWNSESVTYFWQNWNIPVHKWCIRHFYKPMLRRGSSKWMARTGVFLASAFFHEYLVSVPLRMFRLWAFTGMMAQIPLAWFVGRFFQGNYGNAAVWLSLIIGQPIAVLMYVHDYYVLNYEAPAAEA
The assay can be described thus: Human Enzyme Assay (DGAT1 inhibition). The note with it: human DGAT1 expressed in insect cell (sf9) membranes; 14C oleoyl coenzyme A, 1,2 dioleoyl-sn-glycerol, room temperature 30 minutes. In kind it is biochemical. The protocol: The in vitro assay to identify DGAT1 inhibitors uses human DGAT1 expressed in insect cell membranes as the enzyme source (Proc. Natl. Acad. Sci. 1998, 95, 13018-13023). Briefly, sf9 cells were infected with recombinant baculovirus containing human DGAT1 coding sequences and harvested after 48 h. Cells were lysed by sonication and membranes isolated by centrifuging at 28000 rpm for 1 h at 4° C. on a 41% sucrose gradient. The membrane fraction at the interphase was collected, washed, and stored in liquid nitrogen.
DGAT1 activity was assayed by a modification of the method described by Coleman (Methods in Enzymology 1992, 209, 98-102). Compound at 1-10 μM was incubated with 0.4 μg membrane protein, 5 mM MgCl2, and 100 μM 1,2 dioleoyl-sn-glycerol in a total assay volume of 200 μl in plastic tubes. The reaction was started by adding ^14C oleoyl coenzyme A (30 μM final concentration) and incubated at room temperature for 30 minutes. The reaction was stopped by adding 1.5 mL 2-propanol:heptane:water (80:20:2). Radioactive triolein product was separated into the organic phase by adding 1 mL heptane and 0.5 mL 0.1 M carbonate buffer pH 9.5. DGAT1 activity was quantified by counting aliquots of the upper heptane layer by liquid scintillography.
For the compound `O=C(O)C[C@H]1CC[C@H](c2ccc3[nH]c(-c4nnc(Nc5cc(F)c(F)cc5F)o4)nc3c2)CC1` [Example 1, trans-2-[4-[2-[5-[(2,4,5-Trifluorophenyl)amino]-1,3,4-oxadiazol-2-yl]-1H-benzoimidazol-5-yl]cyclohexyl]acetic Acid], the negative logarithm of the IC50 (pIC50) was 7.96. With `O=C(O)C[C@H]1CC[C@H](c2ccc3[nH]c(-c4nnc(Nc5ccc(F)c(F)c5)o4)nc3c2)CC1` [Example 2, trans-2-[4-[2-[5-[(3,4-Difluorophenyl)amino]-1,3,4-oxadiazol-2-yl]-1H-benzoimidazol-5-yl]cyclohexyl]acetic Acid] the figure was 8.00; with `O=C(O)C[C@H]1CC[C@H](c2ccc3[nH]c(-c4nnc(Nc5cccc(OCc6ccccc6)c5)o4)nc3c2)CC1` [Example 3, {trans-4-[2-(5-{[3-(Benzyloxy)phenyl]amino}-1,3,4-oxadiazol-2-yl)-1H-benzimidazol-5-yl]cyclohexyl}acetic Acid], 8.22; with `N#Cc1ccc(Nc2nnc(-c3nc4cc([C@H]5CC[C@H](CC(=O)O)CC5)ccc4[nH]3)o2)cc1` [Example 4, [trans-4-(2-{5-[(4-Cyanophenyl)amino]-1,3,4-oxadiazol-2-yl}-1H-benzimidazol-5-yl)cyclohexyl]acetic Acid], 7.72.

Turning to `O=C(O)C[C@H]1CC[C@H](c2ccc3[nH]c(-c4nnc(Nc5ccc6c(c5)OCCO6)o4)nc3c2)CC1` [Example 6, (4-{2-[5-(2,3-Dihydrobenzo[1,4]dioxin-6-ylamino)[1,3,4]oxadiazol-2-yl]-1H-benzimidazol-5-yl}cyclohexyl)acetic Acid], the pIC50 is 7.27. Next, `O=C(O)C[C@H]1CC[C@H](c2ccc3[nH]c(-c4nnc(Nc5ccc(Cl)cc5)o4)nc3c2)CC1` [Example 7, (4-{2-[5-(4-Chlorophenylamino)[1,3,4]oxadiazol-2-yl]-1H-benzimidazol-5-yl}-cyclohexyl)acetic Acid]: 8.70; `O=C(O)C[C@H]1CC[C@H](c2ccc3[nH]c(-c4nnc(Nc5cccc(Cl)c5)o4)nc3c2)CC1` [Example 8, (4-{2-[5-(3-Chlorophenylamino)[1,3,4]oxadiazol-2-yl]-1H-benzimidazol-5-yl}-cyclohexyl)acetic Acid]: 8.10. Next, `O=C(O)C[C@H]1CC[C@H](c2ccc3[nH]c(-c4nnc(Nc5ccc(F)cc5)o4)nc3c2)CC1` [Example 10, (4-{2-[5-(4-Fluorophenylamino)[1,3,4]oxadiazol-2-yl]-1H-benzimidazol-5-yl}cyclohexyl)acetic Acid]: 8.00; `O=C(O)[C@H]1CC[C@H](Oc2ccc3nc(-c4nnc(Nc5cc(F)c(F)cc5F)o4)[nH]c3c2)CC1` [Example 14, trans-4-[[2-[5-[(2,4,5-Trifluorophenyl)amino]-1,3,4-oxadiazol-2-yl]-3H-benzoimidazol-5-yl]oxy]cyclohexane-1-carboxylic Acid]: 7.37.

`O=C(O)[C@H]1CC[C@@H](Oc2ccc3nc(-c4nnc(Nc5ccc(F)cc5)o4)[nH]c3c2F)CC1` [Example 15, cis-4-{4-Fluoro-2-[5-(4-fluorophenylamino)-1,3,4-oxadiazol-2-yl]-1H-benzimidazol-5-yloxy}cyclohexanecarboxylic Acid] showed a pIC50 of 7.72. Next, `O=C(O)[C@H]1CC[C@H](Oc2ccc3nc(-c4nnc(Nc5ccc(F)cc5)o4)[nH]c3c2F)CC1` [Example 16, trans-4-{4-Fluoro-2-[5-(4-fluorophenylamino)-1,3,4-oxadiazol-2-yl]-1H-benzimidazol-5-yloxy}cyclohexanecarboxylic acid]: 7.64.

In turn, `O=C(O)[C@H]1CC[C@@H](Oc2ccc3nc(-c4nnc(Nc5cc(F)c(F)cc5F)o4)[nH]c3c2F)CC1` [Example 17, cis-4-[[4-fluoro-2-[5-[(2,4,5-trifluorophenyl)amino]-1,3,4-oxadiazol-2-yl]-3H-benzoimidazol-5-yl]oxy]cyclohexane-1-carboxylic Acid] showed a pIC50 of 7.89. This pIC50 lies 0.25 log units higher than the previous one. The compound `O=C(O)[C@H]1CC[C@H](Oc2ccc3nc(-c4nnc(Nc5cc(F)c(F)cc5F)o4)[nH]c3c2F)CC1` [Example 18, trans-4-[[4-fluoro-2-[5-[(2,4,5-trifluorophenyl)amino]-1,3,4-oxadiazol-2-yl]-3H-benzoimidazol-5-yl]oxy]cyclohexane-1-carboxylic Acid] gave a pIC50 of 7.80. Next, “(4-{2-[5-(3,4,5-Trifluorophenylamino)[1,3,4]oxadiazol-2-yl]-1H-benzimidazol-5-yl}cyclohexyl)acetic Acid [Example 11]”: 8.52.
